The NIST ThermoML archive (doi:10.1021/je100081v)
Numbers after ± are expanded uncertainties.

Details: Liquid

Row | vapor or sublimation pressure (469.15 K) [kPa] | vapor or sublimation pressure (509.95 K) [kPa] | Structure (SMILES)
1 | 101.32 ± 0.19 |  | OCCO [1,2-ethanediol]
2 |  | 101.32 ± 0.2 | O=CN1CCOCC1 [N-formylmorpholine]
